Source: ChEMBL document CHEMBL4354805, “Discovery of MK-8719, a Potent O-GlcNAcase Inhibitor as a Potential Treatment for Tauopathies” (J Med Chem, 2019)

Legend:
[1] = Drug excretion in dog at 3 mg/kg, po; assay type: ADME, organism-based, Canis lupus familiaris; conditions: in vivo, read-out: Drug excretion
[2] = Drug excretion in rat feces at 10 mg/kg, po; assay type: ADME, organism-based; conditions: faeces, read-out: Drug excretion
[3] = Drug excretion in rat bile at 10 mg/kg, po; assay type: ADME, organism-based; conditions: read-out: Drug excretion
[4] = Drug excretion in dog cage at 3 mg/kg, po; assay type: ADME, organism-based, Canis lupus familiaris; conditions: read-out: Drug excretion
[5] = Drug excretion in dog bile at 3 mg/kg, po; assay type: ADME, organism-based, Canis lupus familiaris; conditions: read-out: Drug excretion
[6] = Drug excretion in dog urine at 3 mg/kg, po; assay type: ADME, organism-based, Canis lupus familiaris; conditions: read-out: Drug excretion
[7] = Drug excretion in rat at 10 mg/kg, po; assay type: ADME, organism-based; conditions: in vivo, read-out: Drug excretion
[8] = Drug excretion in rat cage at 10 mg/kg, po; assay type: ADME, organism-based; conditions: read-out: Drug excretion
[9] = Drug excretion in rat urine at 10 mg/kg, po; assay type: ADME, organism-based; conditions: read-out: Drug excretion

Work on `[3H][C@@]1(O)[C@@H](C(F)F)O[C@@H]2SC(NCC)=N[C@@H]2[C@H]1O` yielded a dose excreted [1] of 88%, a dose excreted [2] of 0.5% and a dose excreted [3] of 17%. It also gave a dose excreted [4] of 1%, a dose excreted [5] of 8% and a dose excreted [6] of 79%. It also gave a dose excreted [7] of 96%, a dose excreted [8] of 3% and a dose excreted [9] of 75%.
